“And” between values parts separate entries of the source, which are not always exact repeats. Identical values can stand only once.
What was measured:
blanching in humans = assay: McKenzie-type human blanching studies; format: in vivo; conditions: forearm, 6 hours occlusion
Description: McKenzie-type human blanching studies were undertaken to study the blanching effects of a representative test compound of the invention, chloromethyl 17α-ethoxycarbonyloxy-11β-hydroxyandrost-4-en-3-one-17β-carboxylate.
The test compound was dissolved in ethanol/isopropyl myristate (90/10 or 70/30) at 0.03, 0.01, 0.003, 0.001 and 0.0003 M concentrations. 50 Microliter aliquots of each solution were applied to separate gauze portions of a bandage of the type commonly used for allergy testing and the bandage was applied to the forearm. After 6 hours of occlusion, the bandage was removed.

[1] = tested on: ear swelling induced by croton oil; assay: Ear edema test; format: in vivo, rat; conditions: for Ear Weight, % Increase / Ear Weight, % Inhibition / Ear Weight, Inflamed Ear / Ear Weight, Untreated Ear: 6 hr; for Relative organ weight Adrenals / Relative organ weight Thymus: 48 hours
Description: The test animals were Sprague/Dawley rats weighing approximately 150 grams each. In treatment groups, selected amounts of the test compound were dissolved in acetone containing 5% croton oil and 50 microliters of the solution were applied to the inner surface of the right ear of the rats. A control group was identically treated with vehicle only, i.e. 5% croton oil in acetone. Six hours after croton oil challenge, a constant region of each ear was removed by dissection under anesthesia. Then, 48 hours after steroid treatment, the animals were sacrificed and the thymi and adrenals were removed and weighed. The test results showing the inhibitory effect of topically applied steroids on the ear swelling induced by croton oil are summarized in Table II below.

[2] = tested on: granulation tissue formation caused by implantation of cotton pellets; assay: Granuloma formation test (local cotton pellet granuloma assay); format: in vivo, rat; conditions: Table III
Description: The test compound was dissolved in acetone and aliquots of varying concentrations were injected into cotton pellets. The pellets were dried and then one pellet was implanted beneath the skin of each test rat. Six days later, the animals were sacrificed and the granulation tissue (granuloma) which formed in and around the implanted pellet was removed, dried and weighed. In addition, the thymi and adrenals were removed and weighed.

thymus weight in rats = assay: Thymus involution test (topically administered steroids, thymus weight in rats); conditions: 0.75 μmol topical on ear, after 24 hours
Description: The test animals were female Sprague/Dawley rats weighing approximately 40-45 grams each. One side of each ear of each rat was treated with a total of 25 microliters of a solution (ethanol/isopropyl myristate or acetone/isopropyl myristate, 90/10) containing the amount of test compound indicated below. Animals which were treated identically, save for omission of the test compound, served as controls. After 24 hours, all rats were sacrificed and weighed, and their thymi were removed and weighed.
The lower the weight of the thymi, the greater the systemic activity.

## CCOC(=O)O[C@]1(C(=O)OCCl)CC[C@H]2[C@@H]3CCC4=CC(=O)CC[C@]4(C)[C@H]3[C@@H](O)C[C@@]21C [chloromethyl 17α-ethoxycarbonyloxy-11β-hydroxyandrost-4-en-3-one-17β-carboxylate]
Blanching in humans; 0.03 to 0.0003 M, 50 microliter, read 1 to 5 hours after removal
  blanching: blanching was observed even at the lowest concentrations
Blanching in humans; direct comparison
  concentration causing approximately the same degree of blanching: ~0.001 M
[1]; 0.3 mg/kg topical
  Ear Weight, % Increase: 23.3 ± 7.2 %
  Ear Weight, % Inhibition: 62.1%
  Ear Weight, Inflamed Ear: 62.2 ± 3.0 mg
  Ear Weight, Untreated Ear: 50.8 ± 2.4 mg
  Relative organ weight Adrenals: 26.0 ± 2.5 mg/100 g body wt.
  Relative organ weight Thymus: 290 ± 25 mg/100 g body wt.
[1]; 1 mg/kg topical
  Ear Weight, % Increase: 14.0 ± 6.5 %
  Ear Weight, % Inhibition: 77.2%
  Ear Weight, Inflamed Ear: 55.0 ± 2.6 mg
  Ear Weight, Untreated Ear: 48.4 ± 1.0 mg
  Relative organ weight Adrenals: 18.7 ± 1.4 mg/100 g body wt.
  Relative organ weight Thymus: 293 ± 21 mg/100 g body wt.
[1]; 3 mg/kg topical
  Ear Weight, % Increase: 3.7 ± 8.1 %
  Ear Weight, % Inhibition: 94.0%
  Ear Weight, Inflamed Ear: 52.6 ± 1.8 mg
  Ear Weight, Untreated Ear: 51.6 ± 3.2 mg
  Relative organ weight Adrenals: 20.3 ± 0.8 mg/100 g body wt.
  Relative organ weight Thymus: 288 ± 21 mg/100 g body wt.
[1]; topical, Table II
  swelling of the ear caused by croton oil (in words): substantially inhibited the swelling
  thymus weight as compared to the control (in words): did not significantly decrease the thymus weight as compared to the control
[2]; 0.1 mg/pellet
  Body wt. gain: 36.0 ± 2.8 g
  Granulation tissue Dry wt.: 34.7 ± 4.3 mg/100 g body wt.
  Granulation tissue Inhibition: 20.6%
  Relative organ weight Adrenals: 22.9 ± 2.6 mg/100 g body wt.
  Relative organ weight Adrenals (Decrease %): (3.4) %
  Relative organ weight Thymus: 282 ± 13 mg/100 g body wt.
  Relative organ weight Thymus (Decrease %): (13.5) %
[2]; 0.3 mg/pellet
  Body wt. gain: 33.0 ± 1.3 g
  Granulation tissue Dry wt.: 25.3 ± 2.3 mg/100 g body wt.
  Granulation tissue Inhibition: 42.1%
  Relative organ weight Adrenals: 22.8 ± 1.0 mg/100 g body wt.
  Relative organ weight Adrenals (Decrease %): (3.8) %
  Relative organ weight Thymus: 298 ± 16 mg/100 g body wt.
  Relative organ weight Thymus (Decrease %): (8.6) %
[2]; 1 mg/pellet
  Body wt. gain: 32.8 ± 0.9 g
  Granulation tissue Dry wt.: 14.0 ± 1.8 mg/100 g body wt.
  Granulation tissue Inhibition: 68.0%
  Relative organ weight Adrenals: 21.8 ± 1.3 mg/100 g body wt.
  Relative organ weight Adrenals (Decrease %): (8.0) %
  Relative organ weight Thymus: 304 ± 10 mg/100 g body wt.
  Relative organ weight Thymus (Decrease %): (6.7) %
[2]; 3 mg/pellet
  Body wt. gain: 30.7 ± 1.5 g
  Granulation tissue Dry wt.: 18.7 ± 2.3 mg/100 g body wt.
  Granulation tissue Inhibition: 57.2%
  Relative organ weight Adrenals: 19.6 ± 1.1 mg/100 g body wt.
  Relative organ weight Adrenals (Decrease %): (17.3) %
  Relative organ weight Thymus: 278 ± 21 mg/100 g body wt.
  Relative organ weight Thymus (Decrease %): (14.7) %
Thymus weight in rats
  Total Weight per Rat, % Gain ± SD: 33 ± 6%
  Total Weight per Rat, Final: 60.60 g
  mg Thymus ± SD / 100 g Rat: 309 ± 24 mg/100 g

## COC(=O)O[C@]1(C(=O)OCCl)CCC2C3CCC4=CC(=O)CCC4(C)C3C(O)CC21C (stereo partly drawn) [chloromethyl 11β-hydroxy-17α-methoxycarbonyloxyandrost-4-en-3-one-17β-carboxylate]
[2]; 1 mg/pellet
  Granulation tissue Dry wt.: 24.6 ± 2.6 mg/100 g body wt.
  Granulation tissue Inhibition: 43.7%
other
  melting point: 171 to 173 °C

## CC(C)OC(=O)OC1(C(=O)OCCl)[C@H](C)C[C@H]2[C@@H]3CCC4=CC(=O)C=C[C@]4(C)[C@@]3(F)C(=O)C[C@@]21C (stereo partly shown)
other
  melting point: 138 to 140 °C

## CCOC(=O)O[C@]1(C(=O)OCSC)CCC2C3CCC4=CC(=O)CCC4(C)C3C(O)CC21C (stereo partly shown)
other
  melting point: 133 to 136 °C and 137.5 to 138 °C
